Test results published in US20040234509A1, “Replacing liver cells with bone marrow-derived cells for treating disease and expressing therapeutic genes” (priority 2002, published 2004).

Tested on: Kupffer cells
Test: Kupffer cell replacement in mice: gadolinium chloride followed by GFP bone marrow stem cells
Type: in vivo, C57BL/6 mice
Protocol: Bone marrow derived from C57BL/6-TgN(ACTbEGFP)10sb mice was injected into the tail vein of recipient C57BL/6 mice. Recipient mice were separated into two groups. One group received saline injection the other received gadolinium chloride (20-60 mg/kg i.v.: ICN Biomedicals, Aurora, Ohio) 24 hours before they received the bone marrow cells obtained from C57BL/6-TgN (ACTbEGFP) 10sb mice. The amount of bone marrow cells administered varied between 2×10^6 to 100×10^6 cells/animal. Mice were sacrificed 2 weeks after the stem cells were injected and livers were removed, fixed and prepared for fluorescent microscopy.
C57BL/6 mice were injected with 60 mg/Kg of gadolinium chloride 24 hours before injecting stem cells intravenously.

[1] = 60 mg/Kg gadolinium chloride 24 hours before stem cells i.v., two weeks after injection

[Cl][Gd]([Cl])[Cl] [gadolinium chloride]
GFP labeled Kupffer cells in liver, 10×10^6 stem cells vs 2×10^6 stem cells [1]: many more GFP labeled Kupffer cells
number of GFP-labeled Kupffer cells, 100×10^6 stem cells vs 10×10^6 stem cells [1]: did not significantly increase the number of GFP-labeled Kupffer cells
survival / evidence of toxicity (C57BL/6 mice, gadolinium chloride 20-60 mg/kg i.v. plus 2×10^6 to 100×10^6 bone marrow cells/animal, 2 weeks): All mice survived and none showed evidence of any toxicity
GFP-fluorescent Kupffer cells in liver (fluorescent microscopy) (gadolinium chloride 20-60 mg/kg i.v. 24 hours before bone marrow cells from TgN(ACTbEGFP)1Osb mice, livers 2 weeks after stem cells, vs saline control): contained many GFP-fluorescent Kupffer cells
